Patent US20250257064A1, “TRIFLUOROMETHYL-SUBSTITUTED SULFONAMIDE AS BCL-2-SELECTIVE INHIBITOR” (Chia Tai Tianqing Pharmaceutical Group Co., Ltd., priority 2018, published 2025)

Tests used:
[1] = test system: human platelet Caspase-3 activity; assay: Human platelet toxicity experiment (Caspase-3 activity assay); type: cell-based; conditions: compound concentration 1 μM, 90 min; data normalized, reference ABT-199
Experimental: Experimental Example 6: Human Platelet Toxicity Experiment (Caspase-3 Activity Assay)
10 mL of human whole blood was collected using a heparin sodium anticoagulation tube, mixed well by turning upside down, and centrifuged at 90 g for 10 min. The supernatant was collected and centrifuged at 1950 g for 10 min. The supernatant was discarded, and the residue was resuspended in 4 mL of PBS, and centrifuged at 1190 g for 5 min, and the procedure was repeated once. The supernatant was discarded, and the platelets were resuspended in PBS and adjusted to the density of 2-3×10^8 cells/mL. Cells were seeded into a 96-well plate at a density of 2-3×10^7 cells/mL and at 100 μL/well. 50 μL of control buffer was added to each negative control well, and 50 μL of compound at a corresponding concentration was added to each compound well, so that the final concentration of the compound was 2.5 μM, 2 μM, 1 μM or 0.5 μM, followed by incubation in an incubator at 37° C. for 90 min. The liquids in the 96-well plate were transferred to 1.5 mL centrifuge tubes, respectively. The tubes were centrifuged at 4° C. and 6000 g for 5 min, and placed on ice for later use after the supernatant was discarded. 5× lysis buffer was diluted into 1× lysis buffer with water in the kit, and protease inhibitor cocktail was added at a 1:200 ratio to prepare a lysis mixture for later use. 40 μL of lysis mixture was added to each centrifuge tube, and the platelets at the bottom were resuspended using a pipette. The suspension was lysed on ice for 15-20 min and centrifuged at 4° C. and 14,000 g for 10 min. The sample was sub-packaged for later use. 10× assay buffer was diluted into 1× assay buffer with water in the kit, and substrate Ac-DEVD-AMC was added at a 1:600 ratio to prepare a reaction mixture. 5 μL of assay buffer and 40 μL of reaction mixture were added to each blank control well. 5 μL of control platelet lysate and 40 μL of reaction mixture were added to each negative control well. 5 μL of platelet lysate and 40 μL of reaction mixture were added to each compound well. In this procedure, 40 μL of reaction mixture was added at last. The resulting mixture was mixed gently, and the plate was read by a PE Envision multi-functional microplate reader (excitation: 360 nm, emission: 460 nm) once every 10 min for 6 times. Caspase-3 activity was determined based on the intensity of the released AMC fluorescence, that is the slope of the fitted line to which each well corresponds represents Caspase activity (all data were normalized and the reference was ABT-199).

[2] = In vitro stability in human liver microsomes; type: in vitro ADME; conditions: 1 μM
Experimental: Experimental Example 3: In Vitro Stability in Liver Microsome
300 μL of the final incubation system contains 30 μL of liver microsomes (protein concentration: 5 mg/mL), 30 μL of NADPH+MgCl2, 3 μL of the test compound (in acetonitrile), and 237 μL of PBS buffer (pH 7.4), wherein the proportion of the organic solvent (acetonitrile) is 1% (volume ratio). Two duplicate samples were prepared for each specie (mouse, rat and human), and each sample was 0.3 mL. Each tube which was added with 270 μL of a mixed solution of substrate and enzyme, and NADPH, after being pre-incubated at 37° C. for 5 min, was added with 30 μL of NADPH+MgCl2 and mixed. Then 50 μL of the mixture was taken at 0 min, 15 min, 30 min and 60 min, and added with 300 μL of glacial acetonitrile containing an internal standard to terminate the reaction.
50 μL of the incubated sample was added with 300 μL of glacial acetonitrile containing an internal standard (20 ng/mL diazepam) for precipitation, vortexed for 5 min, and centrifuged (13,000 rpm, 20° C.) for 10 min. 70 μL of supernatant was taken and diluted with 70 μL of ultrapure water. After being mixed well, 1 μL of the resulting sample was injected for analysis.

[3] = Pharmacokinetics in beagle dogs; type: in vivo; conditions: male, dog, plasma, po, intragastric 2.5 mg/kg
Experimental: 4.2 Pharmacokinetics in Beagle Dogs
3 male beagle dogs weighing 9-12 kg were intragastrically administered with the test compounds at a dosage of 2.5 mg/kg after adaptive feeding for a period of time.
The animals to be tested (male beagle dogs) were fasted for 12 h before administration and fed 4 h after administration, and water was freely drunk before, after and during the experiment.
After intragastric administration, about 0.5 mL of blood was collected from forelimb vein at 0.25 h (15 min), 0.5 h (30 min), 1 h, 1.5 h, 2 h, 4 h, 6 h, 8 h, 10 h, 24 h, 30 h, 48 h and 72 h, and placed in an EDTA-K2 anticoagulation tube. Blood samples were transferred to a centrifuge within 30 min, and centrifuged at 4000 rpm for 10 min at 4° C. to separate the plasma. All plasma samples were collected and immediately stored at −20° C. for testing.
(§1) 50 μL of the plasma sample to be tested was added with 300 μL of acetonitrile solution containing an internal standard (20 ng/mL diazepam), shaken and mixed well for 5 min, and centrifuged at 13,000 rpm for 10 min. 75 μL of supernatant was taken and diluted with 75 μL of ultrapure water. After being mixed well, 1 μL of the resulting sample was taken for LC/MS/MS determination, and a chromatogram was recorded.
Oral exposure of the compounds disclosed herein was evaluated by in vivo pharmacokinetic experiments in beagle dogs.

Pharmacokinetics in rats = type: in vivo; conditions: Sprague-Dawley, rat, plasma, po, SD rats, IG 5 mg/kg; for AUC(0-t): read-out: AUC(0-24 h); for MRT last: read-out: MRT(0-t)
Experimental: 4.1 Pharmacokinetics in Rats
SD rats weighing 180-220 g were randomly grouped with 3 rats in each group after 3-5 days of adaptive feeding, and intragastrically administered with compounds 1-1 and 8-1 at a dosage of 5 mg/kg.
The animals to be tested (SD rats) were fasted for 12 h before administration and fed 4 h after administration, and water was freely drunk before, after and during the experiment.
After intragastric administration, about 0.2 mL of blood was collected from the orbit at 0 min, 15 min, 30 min, 1 h, 2 h, 4 h, 6 h, 8 h, 10 h and 24 h, and after anticoagulation with EDTA-K2, blood samples were transferred to a centrifuge within 30 min, and centrifuged at 4000 rpm for 10 min at 4° C. to separate the plasma. All plasma samples were collected and immediately stored at −20° C. for testing.
as §1, with “(20 mg/mL” for “(20 ng/mL”, “well, 2” for “well, 1”
Oral exposure of the compounds disclosed herein was evaluated by in vivo pharmacokinetic experiments in rats.

SMILES	human platelet Caspase-3 activity, Slope [1]	Human Residual content after 60 min (%) [2]	AUC(0-inf) [3]	Cmax [3]	MRT last [3]	Tmax [3]	AUC(0-t) ([3]; read-out: AUC0-72 h)	half-life ([3]; read-out: T½ (converted))	AUC(0-inf) (Pharmacokinetics in rats)	Cmax (Pharmacokinetics in rats)	Tmax (Pharmacokinetics in rats)	half-life (Pharmacokinetics in rats)	AUC(0-t) (Pharmacokinetics in rats)	MRT last (Pharmacokinetics in rats)
CC1(C)CCC(CN2CCN(c3ccc(C(=O)NS(=O)(=O)c4ccc(NC[C@H]5COCCO5)c([N+](=O)[O-])c4)c(Oc4cnc5[nH]ccc5c4)c3)CC2)=C(c2ccc(C(F)(F)F)cc2Cl)C1 [Compound 8-1]	0.59	86.3%	27700 ± 14200 ng·h/mL	1430 ± 769 ng/mL	17.2 ± 1.62 h	3.33 ± 1.16 h	26300 ± 13600 ng·h/mL	19.5 ± 1.64 h	6560 ± 1800 ng·h/mL	739 ± 226 ng/mL	4 h	7.62 ± 2.78 h	5970 ± 2020 ng·h/mL	7.35 ± 0.45 h
CC1(C)CCC(CN2CCN(c3ccc(C(=O)NS(=O)(=O)c4ccc(NCC5CCOCC5)c([N+](=O)[O-])c4)c(Oc4cnc5[nH]ccc5c4)c3)CC2)=C(c2ccc(C(F)(F)F)cc2Cl)C1 [Compound 1-1, 4-(4-{[2-(2-chloro-4-trifluoromethylphenyl)-4,4-dimethylcyclohex-1-enyl]methyl}-piperazin-1-yl)-N-({3-nitro-4-[(tetrahydro-2H-pyran-4-ylmethyl)amino]phenyl}sulfonyl)-2-(1H-pyrrolo[2,3-b]pyridin-5-yloxy)-benzamide]	0.67	70.8%							4460 ± 1340 ng·h/mL	378 ± 83.5 ng/mL	4 h	8.73 ± 0.31 h	3700 ± 848 ng·h/mL	8.95 ± 4.99 h
